Results taken from the NIST ThermoML archive (doi:10.1021/acs.jced.5b00367).
Where “and” joins values, the source holds several entries; their conditions need not be identical. Equal entries are not always repeated.

Experiment: wn = mass fraction of the nth substance listed
Conditions: 101 kPa, Liquid, Alternating current cell with electrodes, w2 = 0.01

CCCCCCCCCCCC[N+](C)(C)C.[Br-] [dodecyltrimethylammonium bromide] + O
Conditions | electrical conductivity
279.15 K | 0.186 S/m
279.25 K | 0.186 S/m
279.35 K | 0.186 S/m
279.45 K | 0.186 S/m
279.55 K | 0.186 S/m
279.65 K | 0.186 S/m
279.85 K | 0.186 S/m
279.95 K | 0.186 S/m
280.05 K | 0.186 S/m
280.15 K | 0.186 S/m
280.25 K | 0.186 S/m
280.35 K | 0.186 S/m
280.45 K | 0.186 S/m
280.55 K | 0.186 S/m
280.65 K | 0.186 S/m
280.75 K | 0.185 S/m
280.85 K | 0.185 S/m
280.95 K | 0.185 S/m
281.05 K | 0.185 S/m
281.15 K | 0.185 S/m
281.25 K | 0.185 S/m
281.35 K | 0.185 S/m
281.45 K | 0.185 S/m
281.55 K | 0.185 S/m
281.65 K | 0.185 S/m
281.85 K | 0.185 S/m
281.95 K | 0.185 S/m
282.05 K | 0.185 S/m
282.15 K | 0.185 S/m
282.25 K | 0.185 S/m
282.35 K | 0.184 S/m
282.45 K | 0.184 S/m
282.55 K | 0.184 S/m
282.65 K | 0.184 S/m
282.75 K | 0.184 S/m
282.85 K | 0.184 S/m
282.95 K | 0.184 S/m
283.05 K | 0.184 S/m
283.15 K | 0.184 S/m
283.25 K | 0.184 S/m
283.35 K | 0.184 S/m
283.45 K | 0.184 S/m
283.55 K | 0.184 S/m
283.65 K | 0.184 S/m
283.75 K | 0.184 S/m
283.85 K | 0.184 S/m
283.95 K | 0.184 S/m
284.05 K | 0.183 S/m and 0.184 S/m
284.15 K | 0.184 S/m
284.25 K | 0.183 S/m
284.35 K | 0.183 S/m
284.45 K | 0.183 S/m
284.55 K | 0.183 S/m
284.65 K | 0.183 S/m
284.75 K | 0.183 S/m
284.85 K | 0.183 S/m
284.95 K | 0.183 S/m
285.05 K | 0.183 S/m
285.15 K | 0.183 S/m
288.05 K | 0.182 S/m
288.15 K | 0.182 S/m
288.25 K | 0.182 S/m
288.35 K | 0.182 S/m
288.45 K | 0.182 S/m
288.55 K | 0.182 S/m
288.65 K | 0.182 S/m
288.75 K | 0.182 S/m
288.85 K | 0.182 S/m
288.95 K | 0.182 S/m
289.85 K | 0.183 S/m
289.95 K | 0.183 S/m
290.05 K | 0.183 S/m
290.15 K | 0.183 S/m
290.25 K | 0.183 S/m
290.35 K | 0.183 S/m
290.45 K | 0.183 S/m
290.55 K | 0.183 S/m
290.65 K | 0.183 S/m
290.75 K | 0.183 S/m
290.85 K | 0.183 S/m
290.95 K | 0.183 S/m
291.05 K | 0.183 S/m
291.15 K | 0.183 S/m
291.25 K | 0.183 S/m
291.35 K | 0.183 S/m
291.45 K | 0.183 S/m
291.55 K | 0.183 S/m
291.65 K | 0.183 S/m
291.75 K | 0.183 S/m
291.85 K | 0.183 S/m
292.15 K | 0.183 S/m
292.25 K | 0.183 S/m
292.65 K | 0.183 S/m
292.75 K | 0.183 S/m
292.85 K | 0.183 S/m
292.95 K | 0.184 S/m
293.05 K | 0.184 S/m
293.15 K | 0.184 S/m
293.25 K | 0.184 S/m
294.25 K | 0.184 S/m
294.35 K | 0.184 S/m
294.45 K | 0.184 S/m
294.55 K | 0.184 S/m
294.75 K | 0.184 S/m
294.85 K | 0.185 S/m
294.95 K | 0.185 S/m
295.15 K | 0.185 S/m
295.25 K | 0.185 S/m
295.45 K | 0.185 S/m
295.65 K | 0.185 S/m
295.75 K | 0.185 S/m
296.05 K | 0.185 S/m
296.15 K | 0.185 S/m
296.55 K | 0.185 S/m
296.85 K | 0.186 S/m
297.05 K | 0.186 S/m
297.25 K | 0.186 S/m
297.45 K | 0.186 S/m
297.65 K | 0.186 S/m
297.85 K | 0.186 S/m
298.15 K | 0.186 S/m
298.65 K | 0.187 S/m
298.85 K | 0.187 S/m
299.05 K | 0.187 S/m
299.25 K | 0.188 S/m
299.55 K | 0.188 S/m
299.75 K | 0.188 S/m
299.85 K | 0.188 S/m
300.05 K | 0.188 S/m
300.25 K | 0.188 S/m
300.45 K | 0.188 S/m
300.75 K | 0.189 S/m
301.05 K | 0.189 S/m
301.55 K | 0.189 S/m
301.75 K | 0.189 S/m
301.95 K | 0.19 S/m
302.25 K | 0.19 S/m
302.55 K | 0.19 S/m
302.75 K | 0.19 S/m
302.95 K | 0.191 S/m
303.25 K | 0.191 S/m
303.65 K | 0.191 S/m
303.85 K | 0.191 S/m
304.15 K | 0.192 S/m
305.45 K | 0.193 S/m
306.15 K | 0.194 S/m
306.45 K | 0.194 S/m
306.75 K | 0.194 S/m
307.05 K | 0.195 S/m
307.85 K | 0.195 S/m
308.15 K | 0.196 S/m
308.45 K | 0.196 S/m
308.75 K | 0.196 S/m
309.35 K | 0.197 S/m
309.55 K | 0.197 S/m
309.85 K | 0.198 S/m
310.05 K | 0.198 S/m
310.35 K | 0.199 S/m
310.65 K | 0.199 S/m
310.95 K | 0.199 S/m
311.35 K | 0.199 S/m
